Data: paper PMC7595621, “Quorum sensing N-Acyl homoserine lactones are a new class of anti-schistosomal” (PLoS Neglected Tropical Diseases, 2020)
Where two headings read alike, the source gives them in different places.

Assays:
[1] = test system: adult S. mansoni worm pairs; experiment: Screening of adult S. mansoni blood flukes (7-week worms), WHO-TDR motility scoring; format: cell-based, Schistosoma mansoni; conditions: for Selectivity index, adult worm female: HepG2 CC50 / adult female EC50; for Selectivity index, adult worm male: HepG2 CC50 / adult male EC50; for EC50: Schistosoma mansoni
Experimental: (§1) Adult S. mansoni parasites were recovered by hepatic portal vein perfusion from TO outbred mice (HsdOla:TO, Tuck-Ordinary, Envigo, UK) that were percutaneously infected seven weeks earlier with 180 cercariae. Three adult worm pairs per well, in duplicate, were transferred into 48 well plates (Fisher Scientific, Loughborough, UK) and cultured at 37 °C in an atmosphere containing 5% CO2 in DMEM (Gibco, Paisley, UK) containing 10% v/v HEPES, 10% v/v Foetal Bovine Serum (FBS), 0.7% v/v 200 mM L-Glutamine and 1X v/v penicillin-streptomycin. Worms were dosed with test compounds at 20 μM, 10 μM, 5 μM, 2.5 μM, 1.25 μM and 0.625 μM (in 0.2% DMSO) for 72 hr. Adult worms were scored manually at 72 hr using the WHO-TDR metric scoring system as described previously. Dose response curves and EC50 values were obtained by non-linear regression, after log transformation of concentrations and data normalization using GraphPad Prism 7.02. At 72 hr, the medium from each well was also collected, centrifuged at 350 x g for 2 min. Afterwards, the supernatant was removed, and the remaining egg pellet re-suspended in 10% v/v formalin. Eggs that were oval and contained a fully formed lateral spine were subsequently counted.
(§2) Fig 3 Adult schistosome motility and egg production are differentially affected by the nine N-acyl homoserine lactones. […] Parasite motility was evaluated for each sex and scored using the WHO-TDR scoring system (0 = Dead parasite, 4 = Normal/Healthy movement). B) Culture media were collected from some adult co-cultures at 72 hrs and eggs present in the media were counted. p values are indicated as follows: * <0.05, ** <0.01, *** <0.001.
Initially, these screens were conducted at 20 μM; any compounds that scored a 1 or 0 for motility at this primary concentration were further titrated until no further effect was observed. […] Similar to the schistosomula assays, the differences observed in adult parasite motility when treated with the (R)- and (S)- enantiomers of Compound 1 were striking. […] Estimated EC50s for male and female parasites for these two enantiomers were determined (Table 2), with Compound 5 ((R)- enantiomer) having greater activity than Compound 6 ((S)- enantiomer).

[2] = Cell cytotoxicity assay (MTT); format: cell-based, human; conditions: human, HepG2 cells, MTT, 95% confidence interval, called EC50
Experimental: (§3) The cytotoxicity of each compound was assessed on human HepG2 cells as described previously [17]. Briefly, 2 x 10^4 cells/well were seeded in black walled 96-well microtiter plates (Fisher Scientific, Loughborough, UK) and incubated for 24 hr at 37°C in a humidified atmosphere containing 5% CO2. […] Following a further incubation for 24 hr, the MTT assay was performed as previously described [17, 27]. Dose response curves were obtained by non-linear regression, after log transformation of concentrations and data normalization using GraphPad Prism 7.02.

[3] = test system: juvenile S. mansoni worms; experiment: Propidium iodide (PI) staining of juvenile S. mansoni worms; format: cell-based, Schistosoma mansoni; conditions: 72 hrs
Experimental: Juvenile S. mansoni parasites were recovered via hepatic portal vein perfusion from TO outbred mice (HsdOla:TO, Tuck-Ordinary, Envigo, UK) that were infected percutaneously three weeks earlier with 4000 cercariae. Preparation and centrifugation of juvenile worms have been described previously. […] After motility quantification, 2 μg/mL of PI was added to each well and the plate returned to 37°C, 5% CO2 for 15 minutes. Each well was subsequently imaged on the Roboworm platform using brightfield and fluorescent microscopy (excitation wavelength = 580 nm; emission wavelength = 604 nm). The number of PI positive vs PI negative juvenile worms were cross-checked with the motility scores obtained by our scoring matrix, and the data reported as percentage of PI positive across all parasites within the well. EC50 values were calculated from the motility scores obtained from the dose response titration (as detailed above) and dose response curves were obtained by non-linear regression, after log transformation of concentrations and data normalization using GraphPad Prism 7.02.
Three week juvenile schistosomes, incubated with compounds (1), (3) or controls for 72 hrs, were subsequently cultured with PI at a final concentration of 2 μg/mL for 15 minutes at 37 °C in an environment containing 5% CO2. PI positive parasites (dead) were counted and the percent live vs dead in each well is indicated. A) Quantification of compound (1) mediated juvenile death. B) Quantification of compound (3) mediated juvenile death.

[4] = test system: adult S. mansoni worm pairs (egg production); experiment: In vitro egg production of adult S. mansoni worm pairs; format: cell-based, Schistosoma mansoni; conditions: 72 hr, compared to DMSO
Experimental: as §1, §2
As morbidity associated with schistosomiasis is caused by egg-induced granuloma formation in tissues and the subsequent development of fibrotic lesions around these granulomas, compound-mediated modulation of in vitro egg production (as a surrogate for the in vivo pathology initiator) was next assessed (Fig 3B). […] In comparison to the negative control DMSO, in which egg counts ranged from 300–594 (Average—408), all N-Acyl homoserine lactones affected fecundity.

[5] = test system: HepG2 cells; experiment: Cell cytotoxicity assay (MTT); format: cell-based, human; conditions: 24 hr
Experimental: as §3

[6] = 7-week worms, 72 hr, motility, 95% confidence interval, read-out: ADULT WORM EC50 Female
[7] = 7-week worms, 72 hr, motility, 95% confidence interval, read-out: ADULT WORM EC50 Male

SMILES | Selectivity index, adult worm female [1] | Selectivity index, adult worm male [1] | EC50 [1, 6] [µM] | EC50 [1, 7] [µM] | CC50 at 24 h [2] [µM] | Percent P.I positive parasites ([3]; 3.75 μM) [%] | Percent P.I positive parasites ([3]; 7.5 μM) [%] | Percent P.I positive parasites ([3]; 15 μM) [%] | egg laying significantly reduced down to concentration [4] [µM] | significant reduction in adult worm motility observed down to ([1]; 72 hr) [µM] | EC50 ([1]; sex not stated (abstract), read-out: adult worms EC50) [µM] | fold increase in HepG2 cytotoxicity in comparison to compound 1 [5] [fold] | 100% of the parasites PI positive down to concentration [3] [µM] | effect on egg production (fecundity) [4]
O=C(CBr)NC1CCOC1=O (centres unmarked) [Compound 1, 2-bromo-N-(2-oxotetrahydrofuran-3-yl)acetamide] | 5.2 | 5.3 | 8.3 | 8.2 | 43.5 | 13.3 | 100 | 100 | 10 |  |  |  |  | 
O=C(CBr)NC1CCSC1=O (centres unmarked) [Compound 3, 2-bromo-N-(2-oxotetrahydrothiophen-3-yl)acetamide] | 4.8 | 4.5 | 3.9 | 4.2 | 18.7 |  |  |  | 2.5 | 5 | 4.8 | 2.3 | 0.94 | still affected at 1.25 μM, this was not statistically significant
